Here are results for 27 compounds from PubChem BioAssay AID256 (DTP/NCI, 2004).

For the test, the system named is CD2F1 mice, L1210 leukemia ip, survival T/C. Kind of test: NCI In Vivo Anticancer Drug Screen. Data for tumor model L1210 Leukemia (intraperitoneal) in CD2F1 (CDF1) mice. The settings on record: higher = longer survival. The procedure, abridged:
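Transplantable tumor in mice; compound-treated vs vehicle-treated groups. Read-out = treated/control ratio of the measured endpoint.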

Where [1] appears, read: endpoint: mean survival time, dose: 100.0 mg/kg/injection, schedule: Q01DX001 (ip), vehicle: Klucel (hydroxypropylcellulose) (HPC).
Setting [2] is: endpoint: mean survival time, dose: 200.0 mg/kg/injection, schedule: Q01DX001 (ip), vehicle: Klucel (hydroxypropylcellulose) (HPC).
The mark [3] stands for this setting: endpoint: mean survival time, dose: 400.0 mg/kg/injection, schedule: Q01DX001 (ip), vehicle: Klucel (hydroxypropylcellulose) (HPC).
Where [4] appears, read: endpoint: mean survival time, dose: 25.0 mg/kg/injection, schedule: Q04DX003 (ip), vehicle: saline with Tween-80.
Setting [5] is: endpoint: mean survival time, dose: 50.0 mg/kg/injection, schedule: Q04DX003 (ip), vehicle: saline with Tween-80.
Setting [6] is: endpoint: mean survival time, dose: 25.0 mg/kg/injection, schedule: Q04DX002 (ip), vehicle: saline with Tween-80.
Where [7] appears, read: endpoint: mean survival time, dose: 50.0 mg/kg/injection, schedule: Q04DX002 (ip), vehicle: saline with Tween-80.
[8] abbreviates: endpoint: mean survival time, dose: 100.0 mg/kg/injection, schedule: Q04DX002 (ip), vehicle: saline with Tween-80.
[9] abbreviates: endpoint: mean survival time, dose: 200.0 mg/kg/injection, schedule: Q04DX002 (ip), vehicle: saline with Tween-80.
Where [10] appears, read: endpoint: mean survival time, dose: 100.0 mg/kg/injection, schedule: Q01DX001 (ip), vehicle: saline.
The mark [11] stands for this setting: endpoint: mean survival time, dose: 200.0 mg/kg/injection, schedule: Q01DX001 (ip), vehicle: saline.
Where [12] appears, read: endpoint: mean survival time, dose: 50.0 mg/kg/injection, schedule: Q01DX009 (ip), vehicle: saline with Tween-80.
[13] abbreviates: endpoint: mean survival time, dose: 100.0 mg/kg/injection, schedule: Q01DX009 (ip), vehicle: saline with Tween-80.
[14] abbreviates: endpoint: mean survival time, dose: 100.0 mg/kg/injection, schedule: Q01DX001 (ip), vehicle: saline with Tween-80.
Where [15] appears, read: endpoint: mean survival time, dose: 200.0 mg/kg/injection, schedule: Q01DX001 (ip), vehicle: saline with Tween-80.
The mark [16] stands for this setting: endpoint: mean survival time, dose: 400.0 mg/kg/injection, schedule: Q01DX001 (ip), vehicle: saline with Tween-80.
[17] abbreviates: endpoint: mean survival time, dose: 25.0 mg/kg/injection, schedule: Q01DX009 (ip), vehicle: saline with Tween-80.
[18] abbreviates: endpoint: mean survival time, dose: 100.0 mg/kg/injection, schedule: Q04DX003 (ip), vehicle: saline with Tween-80.
[19] abbreviates: endpoint: mean survival time, dose: 200.0 mg/kg/injection, schedule: Q04DX003 (ip), vehicle: saline with Tween-80.
[20] abbreviates: endpoint: mean survival time, dose: 200.0 mg/kg/injection, schedule: Q01DX009 (ip), vehicle: saline with Tween-80.
[21] abbreviates: endpoint: mean survival time, dose: 400.0 mg/kg/injection, schedule: Q01DX009 (ip), vehicle: saline with Tween-80.
Setting [22] is: endpoint: mean survival time, dose: 400.0 mg/kg/injection, schedule: Q04DX003 (ip), vehicle: saline with Tween-80.

Values joined by “and” are separate entries in the source; they are usually repeats but may differ in a detail not shown here. Equal entries are not always repeated. Toxic doses and inconclusive results are not listed.

In the case of `C(=N\N(c1ccccc1)c1ccccc1)/c1ccc(/C=N/N(c2ccccc2)c2ccccc2)cc1`, the T/C reads like this: (endpoint: mean survival time, dose: 100.0 mg/kg/injection, schedule: Q04DX003 (ip), vehicle: Klucel (hydroxypropylcellulose) (HPC)) 97 % of control; (endpoint: mean survival time, dose: 200.0 mg/kg/injection, schedule: Q04DX003 (ip), vehicle: Klucel (hydroxypropylcellulose) (HPC)) 95 % of control; (endpoint: mean survival time, dose: 400.0 mg/kg/injection, schedule: Q04DX003 (ip), vehicle: Klucel (hydroxypropylcellulose) (HPC)) 95 % of control.

As for `CC1(C(=O)Sc2ccccc2)OC1(C)c1ccccc1` (stereo not drawn), the T/C by setting is: under setting [1], 97 % of control; under setting [2], 108 % of control; under setting [3], 97 % of control.

On to `Cc1cc(N2CCC(N3CCCC3)CC2)nc(/N=C(\N)Nc2ccc(Cl)c(Cl)c2)n1`, for which the T/C (endpoint: mean survival time, dose: 12.5 mg/kg/injection, schedule: Q04DX003 (ip), vehicle: saline with Tween-80) was 98 % of control; the T/C under setting [4] was 101 % of control; the T/C under setting [5] is 86 % of control.

For `CN1C(=O)C=CC1=O` (tested in a mixture with another compound), the T/C by setting is: under setting [6], 103 % of control; under setting [7], 91 % of control; under setting [8], 95 % of control; under setting [9], 91 % of control.

On to `CCOC(=O)C[S+](C)C`, for which the T/C was 90 % of control (endpoint: mean survival time, dose: 75.0 mg/kg/injection, schedule: Q01DX001 (ip), vehicle: saline) and 93 % of control (endpoint: mean survival time, dose: 150.0 mg/kg/injection, schedule: Q01DX001 (ip), vehicle: saline).

On to `COC1(O)C(=O)c2ccccc2OC1(OC)c1ccc(Cl)cc1` (stereo not drawn), for which the T/C was 98 % of control (endpoint: mean survival time, dose: 50.0 mg/kg/injection, schedule: Q01DX001 (ip), vehicle: saline); 102 % of control under setting [10]; 98 % of control under setting [11]; 98 % of control (endpoint: mean survival time, dose: 400.0 mg/kg/injection, schedule: Q01DX001 (ip), vehicle: saline).

Take `CC(=O)C1=C(O)C(Cc2ccccc2)NC1=O` (stereo not drawn): the T/C under setting [1] was 98 % of control, the T/C under setting [2] is 102 % of control and the T/C under setting [3] is 102 % of control.

For `CC(Br)C(=O)OC1C=CCCC1` (stereo not drawn), the T/C is 97 % of control under setting [12] and 101 % of control under setting [13].

Regarding `NC(=O)c1cc([N+](=O)[O-])ccc1NN=NCCCl`, the T/C reads like this: (endpoint: mean survival time, dose: 25.0 mg/kg/injection, schedule: Q01DX001 (ip), vehicle: Klucel (hydroxypropylcellulose) (HPC)) 112 % of control; (endpoint: mean survival time, dose: 50.0 mg/kg/injection, schedule: Q01DX001 (ip), vehicle: Klucel (hydroxypropylcellulose) (HPC)) 150 % of control; under setting [1], 183 % of control; under setting [2], 231 % of control.

As to `COc1cc2c3c(c1O)-c1c(ccc(OC)c1OC)CC3N(C)CC2` (stereo not drawn), the T/C runs as follows: under setting [14], 92 % of control; under setting [15], 105 % of control; under setting [16], 97 % of control.

`C=CCOc1c(C)cc(C)cc1C`: the T/C was 113 % of control (endpoint: mean survival time, dose: 50.0 mg/kg/injection, schedule: Q01DX009 (ip), vehicle: Klucel (hydroxypropylcellulose) (HPC)); 94 % of control (endpoint: mean survival time, dose: 100.0 mg/kg/injection, schedule: Q01DX009 (ip), vehicle: Klucel (hydroxypropylcellulose) (HPC)); 102 % of control (endpoint: mean survival time, dose: 200.0 mg/kg/injection, schedule: Q01DX009 (ip), vehicle: Klucel (hydroxypropylcellulose) (HPC)).

`CCOC(=O)C(Cl)c1ccc(OC)cc1` (stereo not drawn): the T/C is 96 % of control (endpoint: mean survival time, dose: 100.0 mg/kg/injection, schedule: Q04DX003 (ip), vehicle: other); 97 % of control (endpoint: mean survival time, dose: 200.0 mg/kg/injection, schedule: Q04DX003 (ip), vehicle: other); 96 % of control (endpoint: mean survival time, dose: 400.0 mg/kg/injection, schedule: Q04DX003 (ip), vehicle: other).

Consider `CC(CN=Cc1ccccc1[NH-])N=Cc1ccccc1[NH-].[Ni+2]` (stereo not drawn), for which the T/C was 94 % of control (endpoint: mean survival time, dose: 6.25 mg/kg/injection, schedule: Q04DX002 (ip), vehicle: saline with Tween-80); 94 % of control (endpoint: mean survival time, dose: 12.5 mg/kg/injection, schedule: Q04DX002 (ip), vehicle: saline with Tween-80); 97 % of control under setting [6]; 94 % of control and 109 % of control under setting [7].

Regarding `CCCCC(c1ccccc1)P(=O)(OCC)OCC` (stereo not drawn), the T/C by setting is: under setting [17], 97 % of control; under setting [12], 103 % of control; under setting [13], 102 % of control and 111 % of control.

Take `O/N=C/c1ccc(O)cc1`: the T/C runs as follows: under setting [5], 94 % of control; under setting [18], 91 % of control; under setting [19], 97 % of control.

Take `CC1C(=O)CC(C)(C)C=CC1C1C=CC(C)(C)CC(=O)C1C` (stereo not drawn): the T/C (endpoint: mean survival time, dose: 75.0 mg/kg/injection, schedule: Q01DX001 (ip), vehicle: other) is 97 % of control; the T/C (endpoint: mean survival time, dose: 150.0 mg/kg/injection, schedule: Q01DX001 (ip), vehicle: other) is 97 % of control; the T/C (endpoint: mean survival time, dose: 300.0 mg/kg/injection, schedule: Q01DX001 (ip), vehicle: other) was 96 % of control.

Regarding `O=C(COc1cccc(Cl)c1)NCc1cccc(NC(=O)Nc2cccc(S(=O)(=O)F)c2)c1`, the T/C by setting is: under setting [14], 91 % of control; under setting [15], 98 % of control; under setting [16], 101 % of control.

On to `C[n+]1cccc(/C=C/C(=O)Nc2ccccc2)c1`, for which the T/C reads like this: under setting [18], 99 % of control; under setting [19], 87 % of control.

Consider `O=C(O)c1cccc2[nH][nH]c(=O)c12`, for which the T/C is 100 % of control under setting [14]; 101 % of control under setting [13]; 102 % of control under setting [15]; 100 % of control under setting [20]; 100 % of control under setting [16]; 98 % of control under setting [21].

In the case of `Cc1cccc(C)c1N`, the T/C is 96 % of control under setting [14], 94 % of control under setting [15] and 91 % of control under setting [16].

On to `O=C1C(Br)=C(Br)C(=O)C1(Br)Br`, for which the T/C is, setting by setting: (endpoint: mean survival time, dose: 6.25 mg/kg/injection, schedule: Q01DX009 (ip), vehicle: saline with Tween-80) 97 % of control; (endpoint: mean survival time, dose: 12.5 mg/kg/injection, schedule: Q01DX009 (ip), vehicle: saline with Tween-80) 103 % of control; under setting [17], 92 % of control.

Take `C1CCC2(CC1)OCCS2`: the T/C by setting is: under setting [10], 96 % of control; under setting [11], 94 % of control.

For `CC(C)(C)CC(C)(C)c1ccc(O)c(O)c1`, the T/C is, setting by setting: under setting [4], 101 % of control; under setting [5], 93 % of control; under setting [18], 96 % of control.

`Cc1ccc(C(=O)C2CC(Br)C(Br)CC2C(=O)c2ccc(C)cc2)cc1` (stereo not drawn): the T/C is 90 % of control under setting [13]; 100 % of control under setting [18]; 86 % of control under setting [20]; 100 % of control under setting [19]; 86 % of control under setting [21]; 97 % of control under setting [22].

With `O=C(O)c1c(Cl)c(Cl)c(Cl)c(Cl)c1C(=O)O`, the T/C is 97 % of control under setting [8]; 101 % of control under setting [9]; 105 % of control (endpoint: mean survival time, dose: 400.0 mg/kg/injection, schedule: Q04DX002 (ip), vehicle: saline with Tween-80).

With `Nc1ncnc2nc(C(O)C(O)C(O)C(O)CO)[nH]c12` (stereo not drawn), the T/C by setting is: (endpoint: median survival time, dose: 12.5 mg/kg/injection, schedule: Q01DX005 (ip), vehicle: distilled water + Tween-80) 98 % of control; (endpoint: median survival time, dose: 25.0 mg/kg/injection, schedule: Q01DX005 (ip), vehicle: distilled water + Tween-80) 98 % of control; (endpoint: median survival time, dose: 50.0 mg/kg/injection, schedule: Q01DX005 (ip), vehicle: distilled water + Tween-80) 100 % of control; (endpoint: median survival time, dose: 100.0 mg/kg/injection, schedule: Q01DX005 (ip), vehicle: distilled water + Tween-80) 97 % of control; (endpoint: median survival time, dose: 200.0 mg/kg/injection, schedule: Q01DX005 (ip), vehicle: distilled water + Tween-80) 98 % of control.

On to `O=C1OC(c2ccccc2)(c2ccccc2)c2cccc3cccc1c23`, for which the T/C is 93 % of control under setting [18] and 86 % of control under setting [22].
